Source: PubChem BioAssay (NCI)
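Exposure lasted 48 hours, with cells grown in 96-well plates and compounds tested at five concentrations. GI50: concentration for 50% inhibition of growth. TGI marks complete inhibition of growth.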

Legend:
Assay in all cases: inhibition of tumour cell growth, NCI panel, 48 h
[1] = tested on: SK-OV-3 ovarian
[2] = tested on: A549 NSCLC
[3] = tested on: NCI-H226 lung
[4] = tested on: NCI/ADR-RES ovarian
[5] = tested on: LOX IMVI melanoma
[6] = tested on: MCF7 breast
[7] = tested on: K-562 leukemia
[8] = tested on: SK-MEL-2 melanoma
[9] = tested on: MALME-3M melanoma
[10] = tested on: SR leukemia
[11] = tested on: U251 CNS
[12] = tested on: UACC-62 melanoma
[13] = tested on: KM12 colon
[14] = tested on: SF-539 CNS
[15] = tested on: SW-620 colon
[16] = tested on: HOP-92 NSCLC
[17] = tested on: HOP-62 NSCLC
[18] = tested on: PC-3 prostate
[19] = tested on: MOLT-4 leukemia
[20] = tested on: SNB-19 CNS
[21] = tested on: MDA-MB-231 breast
[22] = tested on: OVCAR-5 ovarian
[23] = tested on: SF-268 CNS
[24] = tested on: HCT-116 colon
[25] = tested on: HCC-2998 colon
[26] = tested on: ACHN renal
[27] = tested on: HL-60(TB) leukemia
[28] = tested on: SK-MEL-28 melanoma
[29] = tested on: A498 renal

Question: Which GI50 [1] does the source give for `CC1(C)CC(=O)c2c(C(F)(F)F)nn(-c3ccc(C(N)=O)c(NC4CCC(OC(=O)CN)CC4)c3)c2C1` (configuration not stated) here?
Answer: Its GI50 is 23.8 nM.

Question: What about the TGI [1] of the same compound?
Answer: Its TGI is over 100000 nM.

Question: What about the GI50 [2] of the same compound?
Answer: Its GI50 is 66.6 nM.

Question: And the TGI [2]?
Answer: Its TGI is 32800 nM.

Question: What about the GI50 [3] of the same compound?
Answer: The GI50 was 103 nM.

Question: What about the TGI [3] of the same compound?
Answer: The TGI was over 56400 nM.

Question: And the GI50 [4]?
Answer: The GI50 was 12500 nM.

Question: What about the TGI [4] of the same compound?
Answer: Its TGI is over 100000 nM.

Question: What about the GI50 [5] of the same compound?
Answer: The GI50 was 61.6 nM.

Question: What about the TGI [5] of the same compound?
Answer: The TGI was 330 nM.

Question: And the GI50 [6]?
Answer: The GI50 was under 18.3 nM.

Question: What about the TGI [6] of the same compound?
Answer: The TGI was over 100000 nM.

Question: And the GI50 [7]?
Answer: Its GI50 is 36 nM.

Question: What about the TGI [7] of the same compound?
Answer: Its TGI is over 79400 nM.

Question: What about the GI50 [8] of the same compound?
Answer: The GI50 was 68.3 nM.

Question: What about the TGI [8] of the same compound?
Answer: Its TGI is over 100000 nM.

Question: And the GI50 [9]?
Answer: Its GI50 is 46.8 nM.

Question: What about the TGI [9] of the same compound?
Answer: Its TGI is over 100000 nM.

Question: And the GI50 [10]?
Answer: The GI50 was 30.1 nM.

Question: And the TGI [10]?
Answer: Its TGI is 17600 nM.

Question: What about the GI50 [11] of the same compound?
Answer: Its GI50 is 73.1 nM.

Question: And the TGI [11]?
Answer: The TGI was over 54200 nM.

Question: What about the GI50 [12] of the same compound?
Answer: Its GI50 is 50.7 nM.

Question: What about the TGI [12] of the same compound?
Answer: Its TGI is 14500 nM.

Question: What about the GI50 [13] of the same compound?
Answer: Its GI50 is 43.4 nM.

Question: And the TGI [13]?
Answer: Its TGI is over 100000 nM.

Question: And the GI50 [14]?
Answer: The GI50 was 364 nM.

Question: What about the TGI [14] of the same compound?
Answer: Its TGI is 20800 nM.

Question: What about the GI50 [15] of the same compound?
Answer: Its GI50 is 38 nM.

Question: And the TGI [15]?
Answer: The TGI was over 100000 nM.

Question: What about the GI50 [16] of the same compound?
Answer: The GI50 was 124 nM.

Question: And the TGI [16]?
Answer: Its TGI is 1040 nM.

Question: What about the GI50 [17] of the same compound?
Answer: The GI50 was 78.5 nM.

Question: And the TGI [17]?
Answer: The TGI was over 100000 nM.

Question: And the GI50 [18]?
Answer: The GI50 was 68.8 nM.

Question: And the TGI [18]?
Answer: The TGI was over 100000 nM.

Question: And the GI50 [19]?
Answer: Its GI50 is 43.7 nM.

Question: What about the TGI [19] of the same compound?
Answer: Its TGI is 24400 nM.

Question: And the GI50 [20]?
Answer: Its GI50 is 142 nM.

Question: What about the TGI [20] of the same compound?
Answer: The TGI was over 100000 nM.

Question: What about the GI50 [21] of the same compound?
Answer: Its GI50 is 112 nM.

Question: And the TGI [21]?
Answer: The TGI was 31500 nM.

Question: What about the GI50 [22] of the same compound?
Answer: The GI50 was 3700 nM.

Question: What about the TGI [22] of the same compound?
Answer: Its TGI is over 100000 nM.

Question: What about the GI50 [23] of the same compound?
Answer: Its GI50 is 271 nM.

Question: What about the TGI [23] of the same compound?
Answer: The TGI was over 100000 nM.

Question: What about the GI50 [24] of the same compound?
Answer: The GI50 was 40.5 nM.

Question: And the TGI [24]?
Answer: The TGI was 31600 nM.

Question: And the GI50 [25]?
Answer: Its GI50 is 195 nM.

Question: And the TGI [25]?
Answer: Its TGI is 13200 nM.

Question: And the GI50 [26]?
Answer: The GI50 was 62.2 nM.

Question: What about the TGI [26] of the same compound?
Answer: Its TGI is over 100000 nM.

Question: What about the GI50 [27] of the same compound?
Answer: Its GI50 is 39.8 nM.

Question: What about the TGI [27] of the same compound?
Answer: Its TGI is 13200 nM.

Question: And the GI50 [28]?
Answer: Its GI50 is 52.2 nM.

Question: And the TGI [28]?
Answer: Its TGI is 20600 nM.

Question: What about the GI50 [29] of the same compound?
Answer: The GI50 was 303 nM.
